Laboratory results taken from ChEMBL document CHEMBL1201862, “PubChem BioAssay data set” (2004).
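A five-concentration, 48-hour dose response in 96-well plates underlies each endpoint, interpolated linearly between surrounding concentrations. Here, GI50 denotes the concentration required for 50% inhibition of growth.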 Active and inactive are the calls of the source. Cut-off read from the data, not from the text of the source: active = GI50 up to about 1.1 µM and inactive = higher.

Legend:
Experiment in all cases: growth of human tumour cells (NCI), 48 h
HOP-62 = system: HOP-62
SK-MEL-28 = system: SK-MEL-28
SW-620 = system: SW-620
K562 = system: K562
SK-MEL-2 = system: SK-MEL-2
U-251 = system: U-251
HCT-116 = system: HCT-116
UACC-62 = system: UACC-62
DMS-273 = system: DMS-273
IGROV-1 = system: IGROV-1
CCRF-CEM = system: CCRF-CEM
OVCAR-4 = system: OVCAR-4
NCI-H23 = system: NCI-H23
OVCAR-3 = system: OVCAR-3
SF-268 = system: SF-268
A549 = system: A549
EKVX = system: EKVX
SNB-19 = system: SNB-19
HT-29 = system: HT-29
OVCAR-5 = system: OVCAR-5

| Structure (SMILES) | GI50 (HOP-62) | GI50 (SK-MEL-28) | GI50 (SW-620) | GI50 (K562) | GI50 (SK-MEL-2) | GI50 (U-251) | GI50 (HCT-116) | GI50 (UACC-62) | GI50 (DMS-273) | GI50 (IGROV-1) | GI50 (CCRF-CEM) | GI50 (OVCAR-4) | GI50 (NCI-H23) | GI50 (OVCAR-3) | GI50 (SF-268) | GI50 (A549) | GI50 (EKVX) | GI50 (SNB-19) | GI50 (HT-29) | GI50 (OVCAR-5) |
| --- | --- | --- | --- | --- | --- | --- | --- | --- | --- | --- | --- | --- | --- | --- | --- | --- | --- | --- | --- | --- |
| CC(C)C1=CC2=CC[C@@H]3[C@](C)(CCC[C@@]3(C)C(=O)O)[C@H]2CC1 [ABIETIC ACID] | > 67.8 µM (inactive) | > 59.3 µM (inactive) | 45.8 µM (inactive) | > 53 µM (inactive) | > 50.9 µM (inactive) | 50.1 µM (inactive) | 45.1 µM (inactive) | 36.3 µM (inactive) | 48.1 µM (inactive) | 57.5 µM (inactive) | 42.9 µM (inactive) | 59.6 µM (inactive) | 45.3 µM (inactive) | 35.7 µM (inactive) | > 69 µM (inactive) | 50.6 µM (inactive) | 42.6 µM (inactive) | > 67.1 µM (inactive) | 30.1 µM (inactive) | > 75.5 µM (inactive) |
| O=C1C=CC2OC(c3ccccc3)C(O)C2O1 (configuration not stated) | 12 µM (inactive) | 4.49 µM (inactive) | 2.17 µM (inactive) | 3.37 µM (inactive) | 2.75 µM (inactive) | 10.7 µM (inactive) | 2.49 µM (inactive) | 4.94 µM (inactive) | 4.91 µM (inactive) | 8.99 µM (inactive) | 1.15 µM (inactive) | 7.87 µM (inactive) | 3.07 µM (inactive) | 3.5 µM (inactive) | 5.53 µM (inactive) | 5.74 µM (inactive) | 4.91 µM (inactive) | 11.4 µM (inactive) | 4.53 µM (inactive) | 9.38 µM (inactive) |
| CCCOC(=O)CNC(=O)OC(C)(C)C | > 100 µM (inactive) | > 100 µM (inactive) | > 100 µM (inactive) | > 100 µM (inactive) | > 100 µM (inactive) | > 100 µM (inactive) | > 100 µM (inactive) | > 100 µM (inactive) | > 100 µM (inactive) | > 100 µM (inactive) | > 100 µM (inactive) | > 100 µM (inactive) | > 100 µM (inactive) | > 100 µM (inactive) | > 100 µM (inactive) | > 100 µM (inactive) | > 100 µM (inactive) | > 100 µM (inactive) | > 100 µM (inactive) | > 100 µM (inactive) |
| COc1ccc(C2C(=O)C(Cl)N2Nc2nc(C)cc(O)n2)cc1OC (configuration not stated) | 23.6 µM (inactive) | 43.3 µM (inactive) | 45.3 µM (inactive) | 22 µM (inactive) | 22.6 µM (inactive) | 26.2 µM (inactive) | 36.3 µM (inactive) | 28.4 µM (inactive) | 22.1 µM (inactive) | 10.9 µM (inactive) | 5.58 µM (inactive) | 30.8 µM (inactive) | 25.3 µM (inactive) | 10.2 µM (inactive) | 17.9 µM (inactive) | 59.7 µM (inactive) | 56.8 µM (inactive) | 40.5 µM (inactive) | 46.1 µM (inactive) | > 100 µM (inactive) |
| COC(=O)[C@@H](O)[C@](O)(CCC(C)C)C(=O)O[C@@H]1C(OC)=C[C@]23CCCN2CCc2cc4c(cc2[C@H]13)OCO4 | 0.575 µM (active) | 0.518 µM (active) | 2.21 µM (inactive) | 0.659 µM (active) | 2.19 µM (inactive) | 0.869 µM (active) | 0.407 µM (active) | 3.9 µM (inactive) | 0.585 µM (active) | 1.07 µM (active) | 1.51 µM (inactive) | 1.06 µM (active) | 1.55 µM (inactive) | 1.24 µM (inactive) | 0.984 µM (active) | 0.951 µM (active) | 1.71 µM (inactive) | 0.373 µM (active) | 0.891 µM (active) | 3.24 µM (inactive) |
| CCOC(=O)C1C(c2cc(OC)c(O)c(OC)c2)c2cc3c(cc2OC1(C)O)OCO3 (configuration not stated) | 14.3 µM (inactive) | 60.7 µM (inactive) | 42.9 µM (inactive) | > 100 µM (inactive) | > 100 µM (inactive) | 78.9 µM (inactive) | 47.3 µM (inactive) | 43.9 µM (inactive) | 36.9 µM (inactive) | > 100 µM (inactive) | > 100 µM (inactive) | 57.8 µM (inactive) | 66.5 µM (inactive) | 65.3 µM (inactive) | – | 45.6 µM (inactive) | > 100 µM (inactive) | > 100 µM (inactive) | 41.1 µM (inactive) | – |
| Cn1ncc2c(=O)[nH]c(-c3ccccc3)nc21 | – | > 100 µM (inactive) | > 100 µM (inactive) | > 100 µM (inactive) | > 100 µM (inactive) | > 100 µM (inactive) | – | > 100 µM (inactive) | > 100 µM (inactive) | > 100 µM (inactive) | > 100 µM (inactive) | > 100 µM (inactive) | > 100 µM (inactive) | – | > 100 µM (inactive) | > 100 µM (inactive) | > 100 µM (inactive) | > 100 µM (inactive) | > 100 µM (inactive) | > 100 µM (inactive) |
| CCOC(=O)c1c(NC(=S)NCc2ccccc2)sc2c1CCN(C)C2 | > 100 µM (inactive) | – | – | 21.7 µM (inactive) | 39.5 µM (inactive) | – | 67.3 µM (inactive) | > 100 µM (inactive) | – | 33 µM (inactive) | 17.6 µM (inactive) | – | 65.5 µM (inactive) | 36.5 µM (inactive) | 64 µM (inactive) | 53.6 µM (inactive) | 78 µM (inactive) | > 100 µM (inactive) | 45.5 µM (inactive) | > 100 µM (inactive) |
| CC(=O)OC1C=C(C=O)C(O)(C=O)C2(C)CCCC(C)(C)C12 (configuration not stated) | 6.38 µM (inactive) | 1.05 µM (active) | 0.485 µM (active) | 0.809 µM (active) | 2.86 µM (inactive) | 3.8 µM (inactive) | 0.989 µM (active) | 2.76 µM (inactive) | 2.08 µM (inactive) | 2.49 µM (inactive) | 0.238 µM (active) | 1.33 µM (inactive) | 1.44 µM (inactive) | 0.693 µM (active) | 2.42 µM (inactive) | 4.54 µM (inactive) | 2.65 µM (inactive) | 5.6 µM (inactive) | 1.39 µM (inactive) | 4.55 µM (inactive) |
| CCCCCCCCC1=CCC(CN(C)C)C1=O (configuration not stated) | > 31.6 µM (inactive) | 20.1 µM (inactive) | 19.9 µM (inactive) | 9.82 µM (inactive) | 21.3 µM (inactive) | 18.1 µM (inactive) | 19.4 µM (inactive) | 18.1 µM (inactive) | 18.7 µM (inactive) | 19.4 µM (inactive) | 10.6 µM (inactive) | 23.6 µM (inactive) | 19.9 µM (inactive) | 18.3 µM (inactive) | 18.3 µM (inactive) | > 100 µM (inactive) | 23.6 µM (inactive) | > 55.2 µM (inactive) | 19.4 µM (inactive) | 33.3 µM (inactive) |
| Cc1cc2cccc(Cl)c2nc1C(=O)c1ccccc1 | 44.1 µM (inactive) | > 100 µM (inactive) | > 100 µM (inactive) | > 100 µM (inactive) | > 100 µM (inactive) | > 100 µM (inactive) | > 100 µM (inactive) | > 100 µM (inactive) | > 100 µM (inactive) | > 100 µM (inactive) | – | 86.3 µM (inactive) | > 100 µM (inactive) | > 100 µM (inactive) | > 100 µM (inactive) | > 100 µM (inactive) | – | 70.3 µM (inactive) | – | > 100 µM (inactive) |
| CSCSCC(CO)NC(=O)/C=C\c1c(C)[nH]c(=O)[nH]c1=O (configuration not stated) | 38.8 µM (inactive) | 28.6 µM (inactive) | 15.7 µM (inactive) | 5.2 µM (inactive) | 14.2 µM (inactive) | 7.57 µM (inactive) | 11.4 µM (inactive) | 22.4 µM (inactive) | 37.8 µM (inactive) | 23.7 µM (inactive) | 2.27 µM (inactive) | 1.23 µM (inactive) | 17.7 µM (inactive) | 1.79 µM (inactive) | 7.64 µM (inactive) | 77.1 µM (inactive) | 16.1 µM (inactive) | 14.7 µM (inactive) | 19.3 µM (inactive) | 57.3 µM (inactive) |
| NC(=O)C(=O)N/N=C1/c2ccccc2CC1C1(O)C(=O)Nc2c(Cl)cc(Cl)cc21 (configuration not stated) | > 100 µM (inactive) | > 100 µM (inactive) | > 100 µM (inactive) | 88.7 µM (inactive) | > 100 µM (inactive) | > 100 µM (inactive) | > 100 µM (inactive) | > 100 µM (inactive) | > 100 µM (inactive) | > 100 µM (inactive) | 61.5 µM (inactive) | > 100 µM (inactive) | > 100 µM (inactive) | > 100 µM (inactive) | > 100 µM (inactive) | 69.7 µM (inactive) | > 100 µM (inactive) | > 100 µM (inactive) | > 100 µM (inactive) | > 100 µM (inactive) |
